Laboratory results: patent US7601868B2, “Amine derivative” (Takeda Pharmaceutical Company Limited, priority 2003, dated 2009)

tested on: not given; test: not given; conditions: not given

Row | melting point | Structure (SMILES)
1 | 151 to 153 °C | CCC(c1ccc(CCNC(=O)c2ccc(-c3ccc(Cl)cc3)cc2)cc1)N1CCCC1 (stereo not shown) [Example 33, 4′-chloro-N-(2-{4-[1-(1-pyrrolidinyl)propyl]phenyl}ethyl)[1,1′-biphenyl]-4-carboxamide]
2 | 143 to 145 °C | CC(C)C(c1ccc(CCNC(=O)c2ccc(-c3ccc(Cl)cc3)cc2)cc1)N1CCCC1 (stereo not shown) [Example 36, 4′-chloro-N-(2-{4-[2-methyl-1-(1-pyrrolidinyl)propyl]phenyl}ethyl)[1,1′-biphenyl]-4-carboxamide]
3 | 168 to 169 °C | CC(c1ccc(CCNC(=O)c2ccc(-c3ccc(Cl)cc3)cc2)cc1)N1CCSCC1 (stereo not shown) [Example 37, 4′-chloro-N-(2-{4-[1-(4-thiomorpholinyl)ethyl]phenyl}ethyl)[1,1′-biphenyl]-4-carboxamide]
4 | 76 to 77 °C | CCCCCc1ccc(C(=O)NCCc2ccc(C(C)N3CCCC3)cc2)cc1 (stereo not shown) [Example 38, 4-pentyl-N-(2-{4-[1-(1-pyrrolidinyl)ethyl]phenyl}ethyl)benzamide]
5 | 169 to 171 °C | CN1CCCC1c1ccc(CCNC(=O)c2ccc(-c3ccc(Cl)cc3)cc2)cc1 (stereo not shown) [Example 137, 4′-chloro-N-{2-[4-(1-methyl-2-pyrrolidinyl)phenyl]ethyl}[1,1′-biphenyl]-4-carboxamide]
6 | 143 to 145 °C | CN1CCCC1c1ccc(CCNC(=O)c2ccc(OCC3CC3)cc2)cc1 (stereo not shown) [Example 138, 4-cyclopropylmethoxy-N-{2-[4-(1-methyl-2-pyrrolidinyl)phenyl]ethyl}benzamide]
7 | 165 to 167 °C | COc1ccc(-c2ccc(C(=O)NCCc3ccc(C4CCCN4C)cc3)cc2)cc1 (stereo not shown) [Example 139, 4′-methoxy-N-{2-[4-(1-methyl-2-pyrrolidinyl)phenyl]ethyl}[1,1′-biphenyl]-4-carboxamide]
8 | 90 to 92 °C | O=C(NCCc1ccc(CN2CCCC2)cc1)c1ccc(OCC2CC2)cc1F [Example 140, 4-cyclopropylmethoxy-2-fluoro-N-{2-[4-(1-pyrrolidinylmethyl)phenyl]ethyl}benzamide]
9 | 66 to 68 °C | O=C(NCCc1ccc(CN2CCCC2)cc1)c1ccc(OCCC2CC2)cc1F [Example 141, 4-(2-cyclopropylethoxy)-2-fluoro-N-{2-[4-(1-pyrrolidinylmethyl)phenyl]ethyl}benzamide]
10 | 107 to 109 °C | O=C(Cc1ccc(CN2CCCC2)cc1)NCc1ccc(Br)cc1 [Reference Example 38, N-(4-bromobenzyl)-2-[4-(1-pyrrolidinylmethyl)phenyl]acetamide]
11 | 137 to 138 °C | O=C(CCc1ccc(CN2CCCC2)cc1)Nc1ccc(Br)cc1 [Reference Example 41, N-(4-bromophenyl)-3-[4-(1-pyrrolidinylmethyl)phenyl]propanamide]
12 | 184 to 186 °C | O=C(/C=C/c1ccc(CN2CCCC2)cc1)Nc1ccc(Br)cc1 [Reference Example 43, (E)-N-(4-bromophenyl)-3-[4-(1-pyrrolidinylmethyl)phenyl]-2-propenamide]
13 | 143 to 145 °C | O=C(COc1ccc(CN2CCCC2)cc1)Nc1ccc(Br)cc1 [Reference Example 46, N-(4-bromophenyl)-2-[4-(1-pyrrolidinylmethyl)phenoxy]acetamide]
14 | 151 to 153 °C | O=C(Cc1ccc(CN2CCCC2)cc1)NCc1ccc(-c2ccc(Cl)cc2)cc1 [compound 39, N-[(4′-chloro-1,1′-biphenyl-4-yl)methyl]-2-[4-(1-pyrrolidinylmethyl)phenyl]acetamide]
15 | 104 to 105 °C | CCCCCc1ccc(NC(=O)CCc2ccc(CN3CCCC3)cc2)cc1 [compound 40, N-(4-pentylphenyl)-3-[4-(1-pyrrolidinylmethyl)phenyl]propanamide]
16 | 179 to 181 °C | O=C(CCc1ccc(CN2CCCC2)cc1)Nc1ccc(-c2ccc(Cl)cc2)cc1 [compound 42, N-(4′-chloro-1,1′-biphenyl-4-yl)-3-[4-(1-pyrrolidinylmethyl)phenyl]propanamide]
17 | 207 to 209 °C | O=C(/C=C/c1ccc(CN2CCCC2)cc1)Nc1ccc(-c2ccc(Cl)cc2)cc1 [compound 44, (E)-N-(4′-chloro-1,1′-biphenyl-4-yl)-3-[4-(1-pyrrolidinylmethyl)phenyl]-2-propenamide]
18 | 187 to 189 °C | O=C(NCCc1ccc(-c2ccc(Cl)cc2)cc1)c1ccc(CN2CCCC2)cc1 [compound 45, N-[2-(4′-chloro-1,1′-biphenyl-4-yl)ethyl]-4-(1-pyrrolidinylmethyl)benzamide]

biological target: T1, SLC-1 (Homo sapiens, UniProt Q99705); test: Antagonistic activity using GTPγS binding assay (SLC-1 expression CHO cell membrane fraction, MCH-stimulated); format: biochemical, human/rat; conditions: [35S]-GTPγS binding to SLC-1 expression CHO cell membrane fraction in the presence of MCH, 25° C., 1 hr; read-out: Inhibitory activity (IC50: nM)
T1 construct: expressed in transfected cells; host or cells: CHO cells (human SLC-1 clone 57 / rat SLC-1 clone 44), membrane fraction
Description: Determination of Antagonistic Activity of Test Compound Using GTP γ S Binding Assay
Using human SLC-1 expression CHO cell clone 57 and rat SLC-1 expression CHO cell clone 44 described in WO01/82925, SLC-1 expression CHO cell membrane fractions were prepared by the following method. In phosphate buffered saline (pH 7.4) supplemented with 5 mM EDTA (ethylenediamine tetraacetic acid) were suspended human and rat SLC-1 expression CHO cells (1×10^8) and centrifuged. Homogenate buffer (10 ml, 10 mM NaHCO3, 5 mM EDTA, pH 7.5) was added to the pellets of the cells and, using Polytron Homogeniser, the mixture was homogenated. The supernatant obtained after centrifugation at 400×g for 15 min was further centrifuged at 100,000×g for 1 hr to give precipitate of the membrane fraction. […]
The antagonistic activity of the test compound was determined as follows. […] Liquid scintillator (50 ml) was added to the glass filter and the residual radioactivity was determined by a liquid scintillation counter. Binding inhibition (%)=(radioactivity upon addition of test compound and MCH−radioactivity upon addition of DMSO solution)/(radioactivity upon addition of MCH−radioactivity upon addition of DMSO solution)×100
From the binding inhibition (%), IC50 of the test compound was calculated.

T1 sequence (Q99705 whole entry, species assumed): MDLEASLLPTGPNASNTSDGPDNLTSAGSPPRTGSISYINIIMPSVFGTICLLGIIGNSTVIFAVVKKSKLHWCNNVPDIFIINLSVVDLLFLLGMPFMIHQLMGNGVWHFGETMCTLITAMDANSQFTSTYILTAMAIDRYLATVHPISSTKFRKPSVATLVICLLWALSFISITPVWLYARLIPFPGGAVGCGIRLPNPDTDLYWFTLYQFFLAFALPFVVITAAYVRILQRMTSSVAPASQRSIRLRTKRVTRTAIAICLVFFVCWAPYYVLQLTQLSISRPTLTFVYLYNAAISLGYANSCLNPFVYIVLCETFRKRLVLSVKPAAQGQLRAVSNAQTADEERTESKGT

Row | IC50 | Structure (SMILES)
19 | 3 nM | CC(c1ccc(CCNC(=O)c2ccc(-c3ccc(Cl)cc3)cc2)cc1)N1CCCCCC1 (stereo not shown) [Example 67, N-(2-{4-[1-(1-azepanyl)ethyl]phenyl}ethyl)-4′-chloro[1,1′-biphenyl]-4-carboxamide]
